Values of other authors, collected in patent publication US20090169586A1, “STABLE PACKAGED DOSAGE FORM AND PROCESS THEREFOR” (priority 2006, published 2009).

What was measured:
[1] = test system: skin's protection against sunburn; settings: 24 mg taken for more than 10 weeks
[2] = test system: children exposed to long-term doses of radiation; settings: 40 mg capsules twice daily for 3 months, 709 children
[3] = test system: patients with long-standing non-insulin dependent diabetes mellitus (NIDDM); settings: 60 mg/day for 3 weeks, 20 NIDDM patients
[4] = test system: patients with exercise-induced asthma (EIA); settings: daily dose of 64 mg, 38 patients; all placebo patients showed more than 15% FEV1 reduction

SMILES: CC1=C(/C=C/C(C)=C/C=C/C(C)=C/C=C/C=C(C)/C=C/C=C(C)/C=C/C2=C(C)CCCC2(C)C)C(C)(C)CCC1 [beta-carotene from Dunaliella, beta-carotene]
- skin's protection against sunburn [1]: double the skin's protection against sunburn
- serum markers for oxidisation [2]: reduced serum markers for oxidisation
- LDL oxidation [3]: normalised high LDL oxidation
- patients protected against EIA [4]: 53%
